Patent US10975056B2 (GlaxoSmithKline Intellectual Property Development Limited, priority 2016, dated 2021)
“And” between values parts separate entries of the source, which are not always exact repeats. Identical values can stand only once. Counter-ions that a name gives are not always drawn. Like-named read-outs stand apart in the source and are kept apart here.

Tests used:
DNMT1 = DNMT1 (Homo sapiens, UniProt P26358); assay: DNMT1 biochemical activity, breaklight assay and/or SPA assay
[1] = test system: erythroid progenitor cells (EPCs); assay: Fetal hemoglobin (HbF) ELISA in day 7 erythroid progenitor cells; type: cell-based, human; settings: Homo sapiens, Erythroid progenitor cell, HbF ELISA, day 7 EPCs, 5 days; read-out: EPC ELISA (pEC50 category) (converted);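 further: for fetal hemoglobin induction normalized to vehicle-treated cells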
Outline: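 Read-out was OD450 from an HRP/TMB sandwich ELISA on lysates, normalized to DMSO-only control wells. Thawed day 7 EPCs from human marrow CD34+ cells had been treated for 5 days at 37° C with Compound A, 22 concentrations […].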

[2] = binned activity in either the breaklight or the SPA assay, read-out: DNMT1 BioChemical (pIC50 category) (converted)
[3] = breaklight assay and/or SPA assay, repeated experimental runs, read-out: average pIC50 against DNMT1 (converted)
[4] = binned activity in either the breaklight or the SPA assay

Chain of DNMT1 (P26358 whole entry, looked up): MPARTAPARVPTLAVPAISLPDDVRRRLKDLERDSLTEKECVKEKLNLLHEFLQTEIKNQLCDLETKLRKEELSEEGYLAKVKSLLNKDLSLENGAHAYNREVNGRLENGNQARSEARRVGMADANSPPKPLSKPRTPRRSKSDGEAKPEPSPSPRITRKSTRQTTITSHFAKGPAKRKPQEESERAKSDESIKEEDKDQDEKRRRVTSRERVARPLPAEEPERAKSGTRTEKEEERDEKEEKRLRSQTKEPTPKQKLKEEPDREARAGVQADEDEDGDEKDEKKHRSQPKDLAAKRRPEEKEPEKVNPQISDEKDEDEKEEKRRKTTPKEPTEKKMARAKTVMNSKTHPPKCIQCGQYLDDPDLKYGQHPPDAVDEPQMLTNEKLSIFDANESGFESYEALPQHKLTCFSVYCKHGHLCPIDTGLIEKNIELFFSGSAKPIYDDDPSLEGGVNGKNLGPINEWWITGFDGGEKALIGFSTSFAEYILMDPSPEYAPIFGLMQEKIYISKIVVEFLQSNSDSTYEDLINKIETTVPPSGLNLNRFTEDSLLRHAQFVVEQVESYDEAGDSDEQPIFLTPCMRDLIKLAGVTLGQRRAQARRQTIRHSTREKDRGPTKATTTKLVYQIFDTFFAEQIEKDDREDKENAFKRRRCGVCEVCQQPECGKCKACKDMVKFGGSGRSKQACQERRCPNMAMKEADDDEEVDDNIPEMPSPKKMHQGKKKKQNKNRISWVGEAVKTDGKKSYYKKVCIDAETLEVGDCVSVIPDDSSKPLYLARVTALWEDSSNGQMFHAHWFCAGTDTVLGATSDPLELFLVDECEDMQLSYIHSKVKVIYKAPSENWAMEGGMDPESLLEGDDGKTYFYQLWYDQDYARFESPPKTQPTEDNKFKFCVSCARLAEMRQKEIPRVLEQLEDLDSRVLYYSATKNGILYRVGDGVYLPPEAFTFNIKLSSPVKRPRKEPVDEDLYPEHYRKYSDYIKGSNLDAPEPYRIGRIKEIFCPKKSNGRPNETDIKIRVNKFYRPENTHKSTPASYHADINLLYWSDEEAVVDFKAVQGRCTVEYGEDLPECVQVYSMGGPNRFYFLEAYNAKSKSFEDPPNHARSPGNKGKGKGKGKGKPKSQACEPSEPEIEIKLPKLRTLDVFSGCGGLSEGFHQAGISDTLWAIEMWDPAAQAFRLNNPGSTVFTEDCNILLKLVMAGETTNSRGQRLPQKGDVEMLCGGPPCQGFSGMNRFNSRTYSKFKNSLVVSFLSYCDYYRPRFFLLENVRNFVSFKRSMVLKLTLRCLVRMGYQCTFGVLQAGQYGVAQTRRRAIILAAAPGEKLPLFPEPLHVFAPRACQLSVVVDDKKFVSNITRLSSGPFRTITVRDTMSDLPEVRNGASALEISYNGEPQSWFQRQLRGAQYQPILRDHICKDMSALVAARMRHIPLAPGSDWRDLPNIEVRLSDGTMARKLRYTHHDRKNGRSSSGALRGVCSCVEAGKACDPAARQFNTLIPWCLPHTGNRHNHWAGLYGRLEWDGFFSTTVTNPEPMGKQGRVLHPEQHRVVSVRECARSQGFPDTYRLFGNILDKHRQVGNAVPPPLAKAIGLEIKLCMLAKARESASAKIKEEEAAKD

Row | Structure (SMILES) | IC50 (DNMT1; [2]) [µM] | EC50 [1] [µM] | IC50 (DNMT1; [3]) | DNMT1 BioChemical (pIC50 category) (DNMT1; [4])
1 | CCc1c(C#N)c(SC(C(N)=O)c2ccsc2)nc(N2CCNCC2)c1C#N (stereo not shown) [Example 263, 2-(3,5-Dicyano-4-ethyl-6-(piperazin-1-yl)pyridin-2-ylthio)-2-(thiophen-3-yl)acetamide] | 0.316 to 1 | 0.316 to 1 | – | –
2 | CCc1c(C#N)c(SCc2ccc(CNC(C)=O)cc2)nc(N2CCC(OCCOC(=O)[C@@H](N)C(C)C)CC2)c1C#N [Example 264, (S)-2-((1-(6-((4-(Acetamidomethyl)benzyl)thio)-3,5-dicyano-4-ethylpyridin-2-yl)piperidin-4-yl)oxy)ethyl 2-amino-3-methylbutanoate] | 1 to 31.6 | > 31.6 | – | –
3 | CCc1c(C#N)c(SC(C(N)=O)c2cncc(C)c2)nc(N2CCCN(C)CC2)c1C#N (stereo not shown) [Example 266] | 1 to 31.6 | 0.316 to 1 | ≥ 1 µM and 2 µM | –
4 | CCc1c(C#N)c(SCc2ccc(CNC(C)=O)cc2)nc(N(C)CCOC(=O)[C@@H](N)C(C)C)c1C#N [Example 267] | 1 to 31.6 | 1 to 31.6 | – | –
5 | CCc1c(C#N)c(SCc2ccc(CNC(=O)CN)cc2)nc(N(C)C)c1C#N [Example 268, 2-Amino-N-(4-(((3,5-dicyano-6-(dimethylamino)-4-ethylpyridin-2-yl)thio)methyl)benzyl)acetamide] | 1 to 31.6 | 1 to 31.6 | – | –
6 | CCc1c(C#N)c(SCc2ccc(CN3CCCC3=O)cc2)nc(N2CCCN(C)CC2)c1C#N [Example 269, 4-Ethyl-2-(4-methyl-1,4-diazepan-1-yl)-6-((4-((2-oxopyrrolidin-1-yl)methyl)benzyl)thio)pyridine-3,5-dicarbonitrile] | 1 to 31.6 | 1 to 31.6 | – | –
7 | CCc1c(C#N)c(SC(C(N)=O)c2ccccc2)nc(N2CCC(N3CCC(N)C3=O)CC2)c1C#N (stereo not shown) [Example 270] | – | 1 to 31.6 | – | D (Category D: ≥6.5)
8 | CCc1c(C#N)c(SCc2ccc(CN)cc2)nc(N(C)C)c1C#N [Example 272, 2-((4-(Aminomethyl)benzyl)thio)-6-(dimethylamino)-4-ethylpyridine-3,5-dicarbonitrile, Hydrochloride] | 1 to 31.6 | > 31.6 | – | –
9 | CCc1c(C#N)c(SCc2ccc(NC(C)=O)cc2)nc(N(C)C)c1C#N [Example 273] | 0.316 to 1 | 1 to 31.6 | – | –
10 | CCc1c(C#N)c(SC(C(N)=O)c2ccccc2)nc(N2CCC(OC(=O)[C@@H](N)C(C)C)CC2)c1C#N (stereo partly drawn) [Example 274, 1-(6-((2-Amino-2-oxo-1-phenylethyl)thio)-3,5-dicyano-4-ethylpyridin-2-yl)piperidin-4-yl (2S)-2-amino-3-methylbutanoate] | – | < 0.316 | – | D (Category D: ≥6.5)
11 | CCc1c(C#N)c(SC(C(N)=O)c2ccccc2)nc(N(C)CCOC(=O)[C@@H](N)C(C)C)c1C#N (stereo partly shown) [Example 275] | 0.316 to 1 | 0.316 to 1 | – | –
12 | CCc1c(C#N)c(SC(C(N)=O)c2ccccc2)nc(SC(C(N)=O)c2ccccc2)c1C#N (stereo not shown) [Example 276, 2,2′-((3,5-Dicyano-4-ethylpyridine-2,6-diyl)bis(sulfanediyl))bis(2-phenylacetamide)] | 0.316 to 1 | > 31.6 | – | –
13 | CCc1c(C#N)c(SC(C(N)=O)c2ccccc2)nc(N2CC(COC(=O)[C@@H](N)C(C)C)C2)c1C#N (stereo partly shown) [Example 277] | – | 1 to 31.6 | – | D (Category D: ≥6.5)
14 | CCc1c(C#N)c(SCc2ccc(CNC(=O)CO)cc2)nc(N(C)C)c1C#N [Example 278, N-(4-(((3,5-Dicyano-6-(dimethylamino)-4-ethylpyridin-2-yl)thio)methyl)benzyl)-2-hydroxyacetamide] | – | 1 to 31.6 | – | D (Category D: ≥6.5)
15 | CCc1c(C#N)c(SCc2ccc(CNC(=O)CCN)cc2)nc(N(C)C)c1C#N [Example 279, 3-Amino-N-(4-(((3,5-dicyano-6-(dimethylamino)-4-ethylpyridin-2-yl)thio)methyl)benzyl)propanamide] | 0.316 to 1 | > 31.6 | ≥ 1 µM and 1 µM | –
16 | CCc1c(C#N)c(SC(C(N)=O)c2ccccc2)nc(N2CC(N)C2)c1C#N (stereo not shown) [Example 281, 2-((6-(3-Aminoazetidin-1-yl)-3,5-dicyano-4-ethylpyridin-2-yl)thio)-2-phenylacetamide] | – | 0.316 to 1 | – | D (Category D: ≥6.5)
17 | CCc1c(C#N)c(SCc2ccc(CNC(C)=O)cc2)nc(N2CC(OC(=O)[C@@H](N)C(C)C)C2)c1C#N [Example 282, (S)-1-(6-((4-(Acetamidomethyl)benzyl)thio)-3,5-dicyano-4-ethylpyridin-2-yl)azetidin-3-yl 2-amino-3-methylbutanoate, Trifluoroacetic Acid Salt] | – | 1 to 31.6 | – | D (Category D: ≥6.5)
18 | CCc1c(C#N)c(C)nc(SC(C(N)=O)c2ccccc2)c1C#N (stereo not shown) [Example 283, 2-((3,5-Dicyano-4-ethyl-6-methylpyridin-2-yl)thio)-2-phenylacetamide] | 0.316 to 1 | 1 to 31.6 | 0.316 to 1 µM and 0.631 µM | –
19 | CCc1c(C#N)c(C)nc(SCc2ccc(CNC(C)=O)cc2)c1C#N [Example 284, N-(4-(((3,5-Dicyano-4-ethyl-6-methylpyridin-2-yl)thio)methyl)benzyl)acetamide] | 0.316 to 1 | > 31.6 | – | –
20 | CCc1c(C#N)c(SCc2cnn(CC(N)=O)c2)nc(N(C)C)c1C#N [Example 285, 2-(4-(((3,5-Dicyano-6-(dimethylamino)-4-ethylpyridin-2-yl)thio)methyl)-1H-pyrazol-1-yl)acetamide] | 0.316 to 1 | 1 to 31.6 | – | –
21 | CCc1c(C#N)c(SC(C(N)=O)c2ccccc2)nc(N2CCC(NC(=O)CO)CC2)c1C#N (stereo not shown) [Example 286, N-(1-(6-((2-Amino-2-oxo-1-phenylethyl)thio)-3,5-dicyano-4-ethylpyridin-2-yl)piperidin-4-yl)-2-hydroxyacetamide] | – | 1 to 31.6 | 0.316 to 1 µM and 0.316 µM | D (Category D: ≥6.5)

Next, values leading:

Row | IC50 (DNMT1; [2]) [µM] | EC50 [1] [µM] | IC50 (DNMT1; [3]) | DNMT1 BioChemical (pIC50 category) (DNMT1; [4]) | Structure (SMILES)
22 | 0.316 to 1 | 1 to 31.6 | – | – | CCc1c(C#N)c(SCc2ccc(NS(C)(=O)=O)cc2)nc(N(C)C)c1C#N [Example 287, N-(4-(((3,5-Dicyano-6-(dimethylamino)-4-ethylpyridin-2-yl)thio)methyl)phenyl) methanesulfonamide]
23 | – | 1 to 31.6 | – | D (Category D: ≥6.5) | CCc1c(C#N)c(SC(C(N)=O)c2ccccc2)nc(N2CC(NC(=O)CO)C2)c1C#N (stereo not shown) [Example 288, N-(1-(6-((2-Amino-2-oxo-1-phenylethyl)thio)-3,5-dicyano-4-ethylpyridin-2-yl)azetidin-3-yl)-2-hydroxyacetamide]
24 | 0.316 to 1 | 1 to 31.6 | – | – | CCc1c(C#N)c(SCc2ccc(CNC(C)=O)cc2)nc(N2CCC(OC(=O)[C@@H](N)C(C)C)CC2)c1C#N [Example 289, (S)-1-(6-((4-(Acetamidomethyl)benzyl)thio)-3,5-dicyano-4-ethylpyridin-2-yl)piperidin-4-yl 2-amino-3-methylbutanoate]
25 | 0.316 to 1 | 1 to 31.6 | – | – | CCc1c(C#N)c(SCc2ccc(CNC(C)=O)cc2)nc(N2CCC(NC(C)=O)CC2)c1C#N [Example 290, N-(1-(6-((4-(Acetamidomethyl)benzyl)thio)-3,5-dicyano-4-ethylpyridin-2-yl)piperidin-4-yl)acetamide]
26 | 0.316 to 1 | 1 to 31.6 | – | – | CCc1c(C#N)c(SCc2ccc(CC(=O)NCCO)cc2)nc(N(C)C)c1C#N [Example 291, 2-(4-(((3,5-Dicyano-6-(dimethylamino)-4-ethylpyridin-2-yl)thio)methyl)phenyl)-N-(2-hydroxyethyl)acetamide]
27 | 0.316 to 1 | 1 to 31.6 | – | – | CCc1c(C#N)c(SCc2ccc(C(=O)NCCO)cc2)nc(N(C)C)c1C#N [Example 292, 4-(((3,5-Dicyano-6-(dimethylamino)-4-ethylpyridin-2-yl)thio)methyl)-N-(2-hydroxyethyl)benzamide]
28 | 0.316 to 1 | > 31.6 | – | – | CCc1c(C)c(N2CCNCC2)nc(SC(C(N)=O)c2ccccc2)c1C#N (stereo not shown) [Example 293, 2-((3-Cyano-4-ethyl-5-methyl-6-(piperazin-1-yl)pyridin-2-yl)thio)-2-phenylacetamide]
29 | 0.316 to 1 | > 31.6 | – | – | CCc1c(C#N)c(SCc2ccc(-n3ccnc3)cc2)nc(N2CCCN(C)CC2)c1C#N [Example 294, 2-((4-(1H-Imidazol-1-yl)benzyl)thio)-4-ethyl-6-(4-methyl-1,4-diazepan-1-yl)pyridine-3,5-dicarbonitrile]
30 | 0.316 to 1 | > 31.6 | – | – | CCc1c(C#N)c(SCc2ccc(C#N)c(C)c2)nc(N2CCCN(C)CC2)c1C#N [Example 295, 2-((4-Cyano-3-methylbenzyl)thio)-4-ethyl-6-(4-methyl-1,4-diazepan-1-yl)pyridine-3,5-dicarbonitrile]
31 | 0.316 to 1 | > 31.6 | – | – | CCc1c(C#N)c(SCc2ccc(NC(=O)OC(C)(C)C)cc2)nc(N2CCCN(C)CC2)c1C#N [Example 296, tert-Butyl (4-(((3,5-dicyano-4-ethyl-6-(4-methyl-1,4-diazepan-1-yl)pyridin-2-yl)thio)methyl)phenyl)carbamate]
32 | 0.316 to 1 | > 31.6 | – | – | CCc1c(C#N)c(SCc2ccc(N)cc2)nc(N2CCCN(C)CC2)c1C#N [Example 297, 2-((4-Aminobenzyl)thio)-4-ethyl-6-(4-methyl-1,4-diazepan-1-yl)pyridine-3,5-dicarbonitrile]
33 | – | < 0.316 | – | D (Category D: ≥6.5) | CCc1c(C#N)c(SCc2ccc(NC(C)=O)cc2)nc(N2CCCN(C)CC2)c1C#N [Example 298, N-(4-(((3,5-Dicyano-4-ethyl-6-(4-methyl-1,4-diazepan-1-yl)pyridin-2-yl)thio)methyl)phenyl)acetamide]
